Test [1] concerns the target T1, Alpha-2B adrenergic receptor (Oryctolagus cuniculus, UniProt O77830).
T1 sequence (O77830 whole entry): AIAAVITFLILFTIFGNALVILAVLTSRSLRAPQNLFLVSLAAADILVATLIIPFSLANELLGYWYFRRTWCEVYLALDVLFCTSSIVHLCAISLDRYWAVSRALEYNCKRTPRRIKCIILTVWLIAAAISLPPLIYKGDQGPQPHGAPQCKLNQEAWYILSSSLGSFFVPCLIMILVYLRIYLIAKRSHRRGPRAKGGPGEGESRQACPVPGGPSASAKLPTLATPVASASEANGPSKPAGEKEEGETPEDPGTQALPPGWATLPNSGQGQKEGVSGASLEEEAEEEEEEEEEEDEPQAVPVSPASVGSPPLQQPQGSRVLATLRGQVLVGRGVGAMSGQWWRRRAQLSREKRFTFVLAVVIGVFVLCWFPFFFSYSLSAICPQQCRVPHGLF

In test [2] the target is T2, Alpha-2A adrenergic receptor [16-465] (Rattus norvegicus, UniProt P22909).
T2 construct: 16-465
T2 sequence (P22909 whole entry): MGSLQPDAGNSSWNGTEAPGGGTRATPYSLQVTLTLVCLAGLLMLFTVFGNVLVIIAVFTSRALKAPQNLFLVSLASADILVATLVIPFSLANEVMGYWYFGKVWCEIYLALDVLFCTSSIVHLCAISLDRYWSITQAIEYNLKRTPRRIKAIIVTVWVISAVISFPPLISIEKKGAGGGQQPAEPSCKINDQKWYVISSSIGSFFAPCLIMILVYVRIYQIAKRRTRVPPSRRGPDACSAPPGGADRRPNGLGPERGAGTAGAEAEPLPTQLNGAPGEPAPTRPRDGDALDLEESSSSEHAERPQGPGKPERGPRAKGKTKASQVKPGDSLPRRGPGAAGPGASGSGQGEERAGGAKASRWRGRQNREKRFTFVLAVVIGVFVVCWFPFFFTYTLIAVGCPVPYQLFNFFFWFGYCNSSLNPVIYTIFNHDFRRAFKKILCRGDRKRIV

Test [3] addresses T3, Alpha-2A adrenergic receptor (Homo sapiens, UniProt P08913).
T3 sequence (P08913 whole entry): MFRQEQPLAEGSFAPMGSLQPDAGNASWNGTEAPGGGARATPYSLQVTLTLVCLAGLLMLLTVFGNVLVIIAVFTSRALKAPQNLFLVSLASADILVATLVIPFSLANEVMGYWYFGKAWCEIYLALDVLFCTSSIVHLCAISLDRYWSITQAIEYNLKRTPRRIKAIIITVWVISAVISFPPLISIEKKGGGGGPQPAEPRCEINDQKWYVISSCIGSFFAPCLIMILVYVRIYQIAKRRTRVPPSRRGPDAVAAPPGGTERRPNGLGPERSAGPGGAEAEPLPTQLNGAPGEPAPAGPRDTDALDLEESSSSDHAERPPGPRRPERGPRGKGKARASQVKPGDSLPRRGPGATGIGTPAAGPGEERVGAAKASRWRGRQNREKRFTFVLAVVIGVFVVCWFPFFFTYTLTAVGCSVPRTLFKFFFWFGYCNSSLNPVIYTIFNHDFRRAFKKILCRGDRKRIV

pKi: −log10 of the molar value. Where “and” joins values, the source holds several entries; their conditions need not be identical. Identical values can stand only once.

Regarding `NCC(O)c1ccc(O)c(O)c1` (stereo not drawn) [Noradrenaline,(+)], in test [1], the pKi is 6.55 and 7.24.

As for `CC(C)=CCOc1ccc(Cl)c2c1CCN(C)CC2` [SK&F-104078], the pKi in test [2] is 6.61; in test [1], 6.53 and 6.72; in test [3], 7.52.

Take `O=C1NCN(c2ccccc2)C12CCN(CC1COc3ccccc3O1)CC2` (stereo not given) [8-(2,3-Dihydro-benzo[1,4]dioxin-2-ylmethyl)-1-phenyl-1,3,8-triaza-spiro[4.5]decan-4-one]: the pKi was 7.04 in test [2]; 6.77 and 6.89 in test [1]; 7.55 in test [3].

Take `Cc1ccc(N(CC2=NCCN2)c2cccc(O)c2)cc1` [SMR000059054]: the pKi in test [1] is 7.62 and 7.74.

Turning to `COC(=O)C1=COC(C)C2CN3CCc4c([nH]c5ccccc45)C3CC12` (stereo not given) [Ajmalicine], the pKi was 5.83 in test [2]; 6.42 and 6.37 in test [1]; 7.32 in test [3].

With `CN1C[C@H](Cn2ccnc2-c2ccccc2)C[C@@H]2c3cccc4[nH]c(Br)c(c34)C[C@H]21` [BAM-1303], the pKi was 6.50 in test [2]; 7.02 and 7.34 in test [1]; 7.74 in test [3].

Compound `COc1cc2nc(N3CCN(C(=O)c4ccco4)CC3)nc(N)c2cc1OC` [[3H]-Minipress] showed a pKi in test [1] of less than 5.00.

As to `COc1ccccc1N1CCN(CCC2C(=O)c3ccccc3C(C)(C)C2=O)CC1` (stereo not given) [NSC_122211], the pKi in test [2] is 6.32; in test [1], less than 5.00; in test [3], 6.43.

With `COc1cccc(OC)c1OCCNCC1Oc2ccccc2OC1c1ccccc1` (stereo not given) [NSC_185453], the pKi in test [2] is 6.85; in test [1], 8.28 and 7.93; in test [3] it was 8.46.

In the case of `CN(C)CCCN1c2ccccc2Sc2ccc(Cl)cc21` [[3-(2-Chloro-phenothiazin-10-yl)-propyl]-dimethyl-amine(Chlorpromazine)], in test [1], the pKi is 5.57 and 5.50.

Turning to `Cc1cc(C(C)(C)C)c(O)c(C)c1CC1=NCCN1` [SMR000059324], the pKi in test [1] is 8.20 and 8.35.

With `COC1(C2=NCCN2)COc2ccccc2O1` (stereo not given) [RX821002], the pKi in test [2] was 9.02; in test [1] it was 8.14 and 8.19.

These data come from BindingDB's records for PubMed 11408545 (Glaxosmithkline, 2001).
